The conditions of data set [1]: cited from earlier work.
The conditions of data set [2]: ethanol / ethyl alcohol, normal temperatures; cited from earlier work.
Data set [3] concerns Tumor Necrosis Factor-alpha (TNF-α). The data set is described as follows: ELISA for TNF-α in culture media of EpiDermFT tissue inoculated with C. acnes. Format: cell-based, human. Particulars: C. acnes ATCC 11827 48 hours, 24-hour treatment. As for the experimental part:
(§1) EpiDermFT (EFT-400, MatTek Europe, Bratislava Slovak Republic) is a multilayered reconstituted model of the human dermis and epidermis, formed by culturing normal, human epidermal keratinocytes (NHEK) and normal, human dermal fibroblasts (NHFB). […] The dermal compartment is composed of a collagen matrix containing viable normal human dermal fibroblasts (NHDF). […] Testing was conducted on EpiDermFT in 12-well plates filled with culture medium without antibiotics at 37° C., 5% CO2, saturated humidity (90% RH). Inoculum-6 μL of lipid mix (olive oil and neutral triacylglycerol mixed 1:1) and 60 μL of C. acnes ATCC 11827, 10^7-10^8 CFU/mL-was applied to EpiDerm tissue for 48 hours. […] At the end of the treatment period, culture media was collected and stored at -20° C. for subsequent analysis by ELISA immunoassay for two inflammatory markers TNF-α and C[…] using commercially-available test kits-QuantikineTM ELISA Human Caspase-1/ICE Immunoassay and Human TNF-α Immunoassay both from R&D Systems, Inc. (Minneapolis, MN), Catalog Number DCA100 and DTAOOD, respectively.
In general terms: In an ELISA, binding on a coated surface is turned into a signal by an enzyme label.

A further data set concerns Caspase-1 (CASP-1). The data set is described as follows: ELISA for Caspase-1 in culture media of EpiDermFT tissue inoculated with C. acnes. Particulars: C. acnes ATCC 11827 48 hours, 24-hour treatment. Format: cell-based, human. How it is done: as §1

The source of these data is patent publication US20260232808A1, “Dicarboxylic Acid Concentrates” (Vantage Specialty Ingredients, Inc., priority 2023, published 2026).

Entries after “also recorded” stand apart in the source; their conditions may differ.

For `O=C(O)CCCCCCCC(=O)O` [azelaic acid, Azelaic acid], the “solvent quality for azelaic acid” value in data set [1] (isopropanol) was “good”. Besides, in data set [1] (water), the “maximum azelaic acid dissolved in water” value is given as ≤ 0.24 % by weight (w/w). In addition, the “stability of azelaic acid in ethanol” value in data set [2] is reported as “unstable; also recorded: instability”.
In the case of `O=C(O)c1ccccc1O` [Group 1, salicylic acid], in data set [3], the “TNF-α inflammatory response versus the C. acnes treated control” value is listed as “increased inflammatory response”. Also, the “CASP-1 inflammatory response versus the C. acnes treated control” value in the data set with Caspase-1 (CASP-1) is on record as “increased inflammatory response”.
